Test results reported in US5880099A, “Inositol polyphosphates and methods of using same” (The Regents of the University of California, priority 1997, dated 1999).
Entries after “also recorded” stand apart in the source; their conditions may differ.

Key:
intracellular calcium = assay: Intracellular calcium concentration in treated cells; type: cell-based, human
Description: Elevation in intracellular calcium concentration leads to increased chloride ion secretion. To ensure that none of the effects of the inositol polyphosphate derivatives on chloride ion secretion were due to changes in calcium levels, the concentration of intracellular calcium was measured in cells treated with the inositol polyphosphate derivatives. […] None of the compounds tested altered intracellular calcium levels by themselves or modified levels of intracellular calcium stimulated with carbachol or thapsigargin. Therefore, the effects of inositol polyphosphate derivatives on chloride ion secretion are not due to any effect on intracellular calcium concentrations.

[1] = test system: rabbit colon (calcium-mediated chloride ion secretion); assay: Chloride ion secretion in rabbit colonic epithelia (Ussing chambers)
Description: The results obtained above using T84 colonic epithelial cells in culture were confirmed using a rabbit colon model system (Frizzell et al., J. Membrane Biol. 27:297 (1976); and Frizell and Schultz, Int. Rev. Physiol. 19:205 (1979)), each of which is incorporated herein by reference. Segments of rabbit colon were excised and used as a source of rabbit colonic epithelia. Briefly, segments of rabbit colon were washed with Ringers solution containing 141 mM Na^+, 5 mM K^+, 1.2 mM Ca^2+, 1.2 mM Mg^2+, 122 mM Cl^-, 25 mM HCO3, 1.6 mM HPO4, 0.4 mM H2 PO4 and 10 mM glucose. At 37° C., this solution is pH 7.4 when gassed with 5% CO2 and 95% O2. Epithelium was stripped of the underlying muscle layer and mounted in modified SNAP WELLS (Frizzell et al., supra, 1976). Epithelia were preincubated with 200 μM 1,2-Bt2 -Ins(3,4,5,6)P4 /AM for 30 min at 37° C. and mounted in Ussing chambers. Short circuit current, conductance and resistance were measured at 4 sec intervals as described in Example I. Peak Isc was 50.9% ±10.4 of controls which were incubated with vehicle (FIG. 2; mean±SEM, n=3; p<0.05 by Student's two tailed t-test). The % control shown in FIG. 2 represents ΔIsc over peak Isc in control monolayers stimulated with histamine.

Ins(1,3,4)P3-5/6-kinase = conditions: Vajanaphanich et al. 1994; cited from earlier work
[2] = test system: T84 cells (cyclic AMP-mediated chloride ion secretion); assay: Dibutyryl cyclic AMP acetoxymethyl ester stimulated chloride ion secretion in T84 cells; type: cell-based, human
Description: Enantiomerically pure 1,2-Bt2 -Ins(3,4,5,6)P4 /AM was synthesized to determine if 1,2-Bt2 -Ins(3,4,5,6)P4 /AM mediates the uncoupling of chloride ion secretion from intracellular calcium concentrations. T84 cells (passages 18-48) were maintained as described previously (Weymer, et al., J. Clin. Invest. 76:1828 (1985)), which is incorporated herein by reference. After 7-10 days of incubation on SNAP-WELLS (Corning Costar; Cambridge, Mass.), monolayers had formed tight junctions. Cell monolayers were preincubated with 100, 200 or 400 μM Bt2 -Ins(3,4,5,6)P4 /AM for 30 min prior to mounting. […] Chloride ion secretion was measured as short circuit current (Isc) across T84 monolayers grown to confluence and mounted in Ussing chambers equipped with voltage clamps (Physiologic Instruments; San Diego, Calif.). Data was acquired and analyzed using "Acquire and Analyze" software (Physiologic Instruments).
[…]; mean±SEM; n=4).

[3] = test system: colonic epithelial T84 cells (calcium-mediated chloride ion secretion); assay: Inhibition of calcium-mediated chloride ion secretion (Table I summary); type: cell-based, human; conditions: pathway: Ins (3,4,5,6)P4
From the text: The invention provides compounds that are agonists or antagonists of inositol polyphosphates. Inositol polyphosphate derivatives can function as inositol polyphosphate agonists and antagonists. The effects of compounds of the invention on Ins(3,4,5,6)P4 - and PtdInsP3 -mediated inhibition of calcium-mediated chloride ion secretion are described in the Examples and summarized in Table I.
(§1) Enantiomerically pure 1,2-Bt2 -Ins(3,4,5,6)P4 /AM was synthesized to determine if 1,2-Bt2 -Ins(3,4,5,6)P4 /AM mediates the uncoupling of chloride ion secretion from intracellular calcium concentrations. T84 cells (passages 18-48) were maintained as described previously (Weymer, et al., J. Clin. Invest. 76:1828 (1985)), which is incorporated herein by reference. After 7-10 days of incubation on SNAP-WELLS (Corning Costar; Cambridge, Mass.), monolayers had formed tight junctions. Cell monolayers were preincubated with 100, 200 or 400 μM Bt2 -Ins(3,4,5,6)P4 /AM for 30 min prior to mounting. After an additional 30 min, 0.1 mM histamine was added and chloride ion secretion was monitored. Chloride ion secretion was measured as short circuit current (Isc) across T84 monolayers grown to confluence and mounted in Ussing chambers equipped with voltage clamps (Physiologic Instruments; San Diego, Calif.). Data was acquired and analyzed using "Acquire and Analyze" software (Physiologic Instruments).

[4] = test system: T84 cells (histamine-stimulated chloride ion secretion); assay: Histamine-stimulated chloride ion secretion (short circuit current) in T84 monolayers; type: cell-based, human; conditions: for effect on histamine-stimulated / calcium-mediated chloride ion secretion (in words): T84 cells
Description: as §1, with “T84 cells (passages 18-48) were maintained as described previously (Weymer, et al., J. Clin. Invest. 76:1828 (1985)), which is incorporated herein by reference.” left out
(§2) Initial studies were directed towards understanding structural determinants of Ins(3,4,5,6)P4 responsible for the inhibitory effect on calcium-mediated chloride ion secretion. A series of cell permeable inositol polyphosphate derivatives were synthesized. These derivatives contained either one or two non-hydrolyzable chemical groups on the 1, 2 or 3 position. T84 monolayers were preincubated for 30 minutes with 200 μM of 2-Bt-1-Me-Ins(3,4,5,6)P4 /AM, Me2 -Ins(3,4,5,6)P4 /AM, Me2 -Ins(1,4,5,6)P4 /AM or 2-Bt-3-Me-Ins(1,4,5,6)P4 /AM.
(§3) Following the incubation, cells were mounted in Ussing chambers. Calcium-mediated chloride ion secretion was stimulated with histamine (10^-4 M). Control values were the response to histamine in coincubated monolayers. Data are represented as mean peak ΔIsc ±SEM, expressed as % control for 8 to 10 experiments. Significant differences were identified using the Student's two-tailed t test.

Ins(3,4,5,6)P4 = conditions: cited from earlier work
[5] = test system: T84 cells (thapsigargin-stimulated chloride ion secretion); assay: Thapsigargin-stimulated chloride ion secretion in T84 cells; type: cell-based, human; conditions: carbachol 10^-4 M, thapsigargin 1 μM; FIG. 5A
From the text: Carbachol, a muscarinic cholinergic compound, also increases intracellular calcium ion concentration and stimulates chloride ion secretion with short term treatment. However, following long-term treatment of colonic epithelial T84 cells with carbachol, increased concentrations of intracellular calcium ions no longer stimulate chloride ion secretion (Kachintorn et al., Am. J. Physiol. Cell 264:C671 (1993)), which is incorporated herein by reference. […] Thus, Ins(3,4,5,6)P4 is an endogenous negative regulator of calcium-mediated chloride ion secretion because it uncouples chloride ion secretion from calcium ion concentration.
One set of cells was preincubated for 30 min with an inositol polyphosphate derivative. The other two sets of cells were preincubated with vehicle, alone. Measurement of Isc was initiated at time 0. At 5 min, carbachol (10^-4 M) was added to one set of cells preincubated with vehicle alone (designated "Carbachol" in FIG. 5) and to the set of cells preincubated with inositol polyphosphate derivatives (designated "Carbachol+D,L-1,2-Cyclohexylidene-Ins(3,4,5,6)P4 /AM" in FIG. 5A). At 30 min, 1 μM thapsigargin was added. Data were collected for n=4 to 6 experiments.

inositol 1 kinase = conditions: in vitro; Tan et al.; cited from earlier work
[6] = test system: T84 cells (histamine-stimulated chloride ion secretion); conditions: equivalent to 200 μM extracellular concentration; Vajanaphanich et al.; cited from earlier work
[7] = test system: T84 cells (Ins(3,4,5,6)P4 inhibition of histamine-stimulated chloride ion secretion); assay: Reversal of Bt2 -Ins(3,4,5,6)P4 /AM inhibition of histamine-stimulated chloride ion secretion in T84 cells; type: cell-based, human; conditions: T84 cells, histamine-stimulated
Description: as §2, §3
T84 cells were preincubated with cell permeant inositol polyphosphates as described above to determine if any of the inositol polyphosphate derivatives function as antagonists of Ins(3,4,5,6)P4 inhibition of calcium-mediated chloride ion secretion. Following histamine stimulation, short circuit current was measured. […] The % control shown in FIG. 3 represents ΔIsc over peak Isc in control monolayers stimulated with histamine. However, […]

[8] = test system: T84 cells (Ins(3,4,5,6)P4 inhibition of histamine-stimulated chloride ion secretion); assay: as above; type: cell-based, human; conditions: 400 μM antagonist + 200 μM Bt2 Ins (3,4,5,6)P4 /AM; mean ± SEM; 30 min
[9] = test system: T84 cells (histamine-stimulated chloride ion secretion); assay: Histamine-stimulated chloride ion secretion (short circuit current) in T84 monolayers; type: cell-based; conditions: Homo sapiens, T84, 0.5 h; 800 μM compound alone; mean ± SEM; read-out: Peak ΔIsc (% Control) after histamine (100 μM)

SMILES: CCCC(=O)O[C@@H]1[C@H](OC(=O)CCC)[C@H](OP(=O)(OCOC(C)=O)OCOC(C)=O)[C@@H](OP(=O)(OCOC(C)=O)OCOC(C)=O)[C@H](OP(=O)(OCOC(C)=O)OCOC(C)=O)[C@H]1OP(=O)(OCOC(C)=O)OCOC(C)=O [Bt2 -Ins(3,4,5,6)P4 /AM, 1,2-di-O-butyryl-myo-inositol 3,4,5,6-TKphosphate oct (acetoxymethyl) ester]
- effect on intracellular calcium (in words) (intracellular calcium; alone): does not increase intracellular calcium
- effect on calcium response to thapsigargin or carbachol (in words) (intracellular calcium; thapsigargin or carbachol stimulated): does not affect calcium response to thapsigargin
- effect on chloride ion secretion in rabbit colon (in words) ([1]; FIG. 2 / Example II): inhibition of chloride ion secretion; also recorded: decreases chloride ion secretion in rabbit colon
- activity at 200 µM ([1]; Oryctolagus cuniculus, 0.5 h, 200 μM, 30 min at 37° C., mean±SEM, n=3, p<0.05, read-out: Peak Isc, of controls): 50.9%
- effective intracellular concentration (Ins(1,3,4)P3-5/6-kinase): about 4 μM
- inhibition of dibutyryl cyclic AMP acetoxymethyl ester stimulated chloride ion secretion (in words) [2]: no inhibition
- peak ΔIsc, dibutyryl cyclic AMP acetoxymethyl ester stimulated chloride ion secretion ([2]; mean±SEM, n=4): 96.3±9.1 % or control
- Mechanism and Inositol Polyphosphate Pathway Affected [3]: Agonist of
- activity at 100 µM ([4]; Homo sapiens, T84, 0.5 h, 100 μM compound, mean ± SEM, read-out: Peak ΔIsc (% Control) after histamine (100 μM)): 75.1 ± 7.4%
- activity at 200 µM ([4]; Homo sapiens, T84, 0.5 h, 200 μM compound alone, mean ± SEM, read-out: Peak ΔIsc (% Control) after histamine (100 μM)): 57.2 ± 15.1%
- activity at 400 µM ([4]; Homo sapiens, T84, 0.5 h, 400 μM compound alone, mean ± SEM, read-out: Peak ΔIsc (% Control) after histamine (100 μM)): 69.3 ± 8.7%
- effect on histamine-stimulated / calcium-mediated chloride ion secretion (in words) [4]: inhibit calcium-mediated chloride secretion; also recorded: inhibited chloride ion secretion in response to increased concentrations of intracellular calcium; also recorded: decreased histamine-stimulated chloride ion secretion relative to control cells
- concentration for maximum decrease of histamine-stimulated chloride ion secretion ([4]; extracellular, no further decrease with 400 μM): 200 µM

SMILES: C[N+](C)(C)CCOC(N)=O [Carbachol]
- increase in Ins(3,4,5,6)P4 levels (Ins(3,4,5,6)P4; background): ≤ 20 -fold
- rise of intracellular Ins(3,4,5,6)P4 levels (in words) (Ins(3,4,5,6)P4; long-term treatment, Vajanaphanich et al.): slow and prolonged rise of intracellular Ins(3,4,5,6)P4 levels
- effect of prolonged carbachol on thapsigargin-stimulated ΔIsc (in words) [5]: ΔIsc was attenuated

SMILES: O=P(O)(O)O[C@H]1[C@H](O)[C@@H](O)[C@H](OP(=O)(O)O)[C@@H](OP(=O)(O)O)[C@H]1O [Ins(1,3,4)P3]
- effect on inositol 1 kinase (in words) (inositol 1 kinase): inhibited inositol 1 kinase

SMILES: O=P(O)(O)O[C@H]1[C@H](OP(=O)(O)O)[C@@H](OP(=O)(O)O)[C@@H](O)[C@@H](O)[C@@H]1OP(=O)(O)O [Ins(3,4,5,6)P4, myo-inositol 3,4,5,6-tetrakisphosphate]
- intracellular level corresponding to onset of maximum inhibition [6]: ~4 µM

SMILES: CCCC(=O)O[C@@H]1[C@H](OC)[C@H](OP(=O)(OCOC(C)=O)OCOC(C)=O)[C@@H](OP(=O)(OCOC(C)=O)OCOC(C)=O)[C@H](OP(=O)(OCOC(C)=O)OCOC(C)=O)[C@H]1OP(=O)(OCOC(C)=O)OCOC(C)=O (relative stereo) [D,L-1-Bt-2-Me-Ins(3,4,5,6)P4 /AM, D,L-1-O-butyryl-2-O-methyl-myo-inositol 3,4,5,6-TKphosphate oct (acetoxymethyl) ester]
- reversal of the inhibitory effect of Bt2 -Ins(3,4,5,6)P4 /AM / Ins(3,4,5,6)P4-mediated inhibition (in words) [7]: did not reverse the inhibition of Bt2 -Ins(1,4,5,6)P4 /AM
- Mechanism and Inositol Polyphosphate Pathway Affected [3]: Agonist of
- Peak ΔIsc (% Control) after histamine (100 μM) [8]: 96.7 ± 14.8 % Control
- activity at 800 µM [9]: 114 ± 23.7%
- effect on histamine-stimulated / calcium-mediated chloride ion secretion (in words) [4]: did not inhibit chloride ion secretion
